One assay deals with THP-1. The experiment in a line: Antioxidant activity in human THP1 cells assessed as inhibition of macrophage-mediated LDL oxidation after 24 hrs in presence of CuSO4 by TBARS assay. The conditions noted are these: THP-1, 24 h. The assay is classed as functional, cell-based.
Assay [1] can be described thus: Antioxidant activity assessed as DPPH radical scavenging activity at 4 mM relative to control. The assay is classed as functional.
Another assay concerns SH-SY5Y. Put plainly: Neuroprotection against rotenone/oligomycin A-induced cell death in human SH-SY5Y cells at 1 uM preincubated for 24 hrs followed by rotenone/oligomycin A addition measured after 24 hrs by MTT assay relative to control. It counts as functional.
Assay [2] in a line: Antioxidant activity assessed as inhibition of lipid peroxidation. It counts as functional.
The nature of assay [3]: Antioxidant activity assessed as hydroxyl radical scavenging activity. The assay is classed as functional.
Assay [4] in a line: Antioxidant activity assessed as radical scavenging activity. The assay is classed as functional.
The nature of assay [5]: Antioxidant activity assessed as inhibition of H2O2-induced lipid peroxidation. The assay is classed as functional.

Values after ≈ are worked out from the molar mass of the structure shown.

On to `CC(C)(Sc1cc(C(C)(C)C)c(O)c(C(C)(C)C)c1)Sc1cc(C(C)(C)C)c(O)c(C(C)(C)C)c1` [PROBUCOL], for which, in the assay with THP-1, the IC50 worked out at 0.6 µM.
With `O=[N+]([O-])c1cccc(C2Nc3ccccc3-c3cc(-c4ccccc4)nn32)c1` (stereo unspecified), in assay [1], the Activity turned out to be 96%.
Consider `Cc1[nH]nc2c1C(c1cccnc1)C(C#N)=C(N)O2` (stereo unspecified), for which, in the assay on SH-SY5Y, the Activity stood at 57.9%.
Regarding `Oc1cc(O)c2c(c1)O[C@H](c1ccc(O)c(O)c1)[C@@H](O)C2` [CIANIDANOL], the results for the IC50 in assay [2] and in assay [3] were 1440 µM and 2930 µM, respectively.
Consider `Cc1ccc(-c2cc(C(F)(F)F)nn2-c2ccc(S(N)(=O)=O)cc2)cc1` [CELECOXIB], for which the IC50 in assay [2] amounted to 1990 µM; in assay [3], 1970 µM.
As for `Nc1[nH]nc(NCc2ccccc2)c1-c1ccc([N+](=O)[O-])cc1`, in assay [4], the half-maximal inhibitory concentration (IC50) was 800 µg/mL (≈ 2590 µM).
For `CC1=NN(C(=O)c2ccccc2O)C(O)(C(F)(F)F)C1` (stereo unspecified), in assay [5], the IC50 was under 15 µM.
Take `CC(C)(C)c1cc(C2=NNC(c3cc(C(C)(C)C)c(O)c(C(C)(C)C)c3)C2)cc(C(C)(C)C)c1O` (stereo unspecified): the IC50 in the assay on THP-1 was determined as 0.1 µM.
On to `Oc1c(Cl)cc(Cl)cc1C1Nc2ccccc2-c2cc(-c3ccccc3)nn21` (stereo unspecified), for which the Activity in assay [1] amounted to 99%.

These data come from ChEMBL document CHEMBL4270556, “Current progress on antioxidants incorporating the pyrazole core” (Eur J Med Chem, 2018).
